This note sets out measurements from ChEMBL document CHEMBL4041504, “Differential characterization using readily accessible NMR experiments of novel N- and O-alkylated quinolin-4-ol, 1,5-naphthyridin-4-ol and quinazolin-4-ol derivatives with antimycobacterial activity” (Eur J Med Chem, 2017).

One may read the IC50 as the concentration at which inhibition is half-maximal. By chromatographic logD is commonly meant lipophilicity estimated from chromatographic retention. A high value points to a more lipophilic compound.

For one data set, the system named is HepG2. Description: Cytotoxicity against human HepG2 cells assessed as reduction in cell viability after 48 hrs by CellTiter Glo assay. It counts as cell-based. Particulars: HepG2, 48 h.
A short description of data set [1]: Lipophilicity, log D of the compound at pH 7.4 by chromatographic method. Particulars: buffer. It counts as physicochemical.
Data set [2] has as its system Mycobacterium tuberculosis. Description: microbe, parasite or virus in culture. Particulars: H37Rv ATCC 25618, 144 h.
Description: Antimycobacterial activity against Mycobacterium tuberculosis H37Rv ATCC 25618 after 6 days by resazurin dye based assay
Data set [3] is described as follows: Kinetic aqueous solubility of the compound by chemiluminescent nitrogen detection assay. Format: physicochemical. Particulars: read-out: Kinetic_solubility.
The nature of data set [4]: Permeability of the compound by PAMPA. It counts as physicochemical. Particulars: read-out: permeability.

≈ marks a conversion by molar mass, not a printed value.

`COc1ccc2nc(C)nc(OCC(=O)Nc3cc(C)cc(C)c3)c2c1`: the IC50 in the data set on HepG2 was greater than 100 µM. This compound yielded a chromatographic logD in data set [1] of 5.59. In data set [2], this compound returned an MIC of 1.25 µM (≈ 0.439 µg/mL). In data set [3], the solubility kinetic came out at 3 µM (≈ 1.05 µg/mL). Further, the Papp in data set [4] was 37 ×10⁻⁶ cm/s.

On to `Cc1cc(C)cc(NC(=O)Cn2ccc(=O)c3ccccc32)c1`, for which the IC50 with HepG2 is 63.1 µM. In addition, in data set [1], the chromatographic logD is 3.54. In data set [2], this compound returned an MIC greater than 250 µM. The solubility kinetic in data set [3] turned out to be 34 µM (≈ 10.4 µg/mL). Also, in data set [4], the Papp is 45 ×10⁻⁶ cm/s.

On to `COc1ccc2c(c1)c(=O)ccn2CC(=O)Nc1cc(C)cc(C)c1`, for which the IC50 in the data set on HepG2 was greater than 100 µM. Besides, the chromatographic logD in data set [1] was 3.72. In data set [2], this compound registered an MIC greater than 250 µM. The solubility kinetic in data set [3] stood at 30 µM (≈ 10.1 µg/mL). The Papp in data set [4] worked out at 19 ×10⁻⁶ cm/s.

In the case of `COc1ccc2nc(C)cc(OCC(=O)Nc3cc(C)cc(C)c3)c2n1`, the IC50 in the data set on HepG2 is greater than 100 µM. Further, the chromatographic logD in data set [1] was determined as 5.57. In data set [2], this compound returned an MIC of 3.8 µM (≈ 1.34 µg/mL). Also, in data set [3], the solubility kinetic was 19 µM (≈ 6.68 µg/mL). Further, in data set [4], the Papp was determined as 51 ×10⁻⁶ cm/s.

With `COc1ccc2nccc(OCC(=O)Nc3cc(C)cc(C)c3)c2c1`, in the data set on HepG2, the half-maximal inhibitory concentration (IC50) is 50.1 µM. Besides, the chromatographic logD in data set [1] is 5.3. Moreover, the MIC in data set [2] amounted to 10 µM (≈ 3.36 µg/mL). For the same compound, in data set [3], the solubility kinetic came out at 51 µM (≈ 17.2 µg/mL). Besides, the Papp in data set [4] was 28 ×10⁻⁶ cm/s.

Consider `COc1ccc2nc(C)cc(OCC(=O)Nc3cc(C)cc(C)c3)c2c1`, for which, in the data set with HepG2, the half-maximal inhibitory concentration (IC50) was 20 µM. This compound also had an MIC in data set [2] of 1.9 µM (≈ 0.666 µg/mL).

As to `NNC(=O)c1ccncc1` [ISONIAZID], the MIC in data set [2] is 3.6 µM (≈ 0.494 µg/mL).

On to `Cc1cc(C)cc(NC(=O)Cn2ccc(=O)c3ccc(Cl)cc32)c1`, for which, in the data set on HepG2, the IC50 is 100 µM. For the same compound, in data set [1], the chromatographic logD amounted to 4.39. In data set [2], this compound registered an MIC greater than 250 µM. Further, the solubility kinetic in data set [3] came out at 86 µM (≈ 29.3 µg/mL). In data set [4], the Papp came out at 26 ×10⁻⁶ cm/s.

`COc1ccc2ncn(CC(=O)Nc3cc(C)cc(C)c3)c(=O)c2c1`: in the data set on HepG2, the 50% inhibitory concentration (IC50) is greater than 100 µM. Further, the chromatographic logD in data set [1] was determined as 4.5. For the same compound, the MIC in data set [2] is greater than 250 µM. Also, the solubility kinetic in data set [3] worked out at 8 µM (≈ 2.7 µg/mL).

In the case of `Cc1cc(C)cc(NC(=O)Cn2cnc3ccccc3c2=O)c1`, in the data set on HepG2, the half-maximal inhibitory concentration (IC50) is 79.4 µM. In data set [1], the chromatographic logD turned out to be 4.29. In addition, the MIC in data set [2] was greater than 250 µM. Further, the solubility kinetic in data set [3] was 20 µM (≈ 6.15 µg/mL). In addition, the Papp in data set [4] is 60 ×10⁻⁶ cm/s.

Consider `Cc1cc(C)cc(NC(=O)COc2ccnc3ccccc23)c1`, for which the half-inhibitory concentration (IC50) with HepG2 is greater than 100 µM. This compound also registered a chromatographic logD in data set [1] of 5.03. In data set [2], this compound displayed an MIC greater than 80 µM. In addition, the solubility kinetic in data set [3] was 59 µM (≈ 18.1 µg/mL). The Papp in data set [4] was found to be 46 ×10⁻⁶ cm/s.

For the compound `COc1ccc2nc(C)n(CC(=O)Nc3cc(C)cc(C)c3)c(=O)c2c1`, the IC50 in the data set with HepG2 was greater than 100 µM. In addition, the chromatographic logD in data set [1] was determined as 4.77. For the same compound, in data set [2], the MIC turned out to be 250 µM (≈ 87.9 µg/mL). In addition, in data set [3], the solubility kinetic was 74 µM (≈ 26 µg/mL). Also, in data set [4], the Papp amounted to 58 ×10⁻⁶ cm/s.
